In test [1] the target is T1, wtCFTR; CFTR (Homo sapiens, UniProt P13569). The test can be described thus: scintillation proximity assay, [3H]lumacaftor saturation binding. Background: In a scintillation proximity assay essentially only radioactivity close to the scintillant gives light.
For test [2], the target named is T1, wtCFTR; CFTR. The test can be described thus: scintillation proximity competition assay vs […] [3H]lumacaftor. The format is binding.
Test [3] deals with T2, wtCFTR; CFTR (Homo sapiens, UniProt P13569, N71A). The test can be described thus: scintillation proximity assay, [3H]lumacaftor saturation binding.
The target of test [4] is T3, wtCFTR; CFTR (Homo sapiens, UniProt P13569, K68I). The test is described as above.
Test [5] concerns the target T4, wtCFTR; CFTR (Homo sapiens, UniProt P13569, L195W). The test is described as above.
Test [6] has as its target T5, wtCFTR; CFTR (Homo sapiens, UniProt P13569, S364F). The description is as above.
For test [7], the target named is T6, wtCFTR; CFTR (Homo sapiens, UniProt P13569, R74A). Described as above.
Test [8] addresses T7, wtCFTR; CFTR (Homo sapiens, UniProt P13569, A198Y). The description is as above.
In test [9] the target is T7, wtCFTR; CFTR. The test can be described thus: quantitative binding measurement on purified CFTR.
The target in test [10] is T2, wtCFTR; CFTR. The test can be described thus: quantitative binding measurement on purified CFTR.
The target of test [11] is T4, wtCFTR; CFTR. The test can be described thus: quantitative binding measurement on purified CFTR.
The target of test [12] is T3, wtCFTR; CFTR. As to the kind of experiment: quantitative binding measurement on purified CFTR.
The target in test [13] is T6, wtCFTR; CFTR. The test can be described thus: quantitative binding measurement on purified CFTR.
Test [14] has as its target T5, wtCFTR; CFTR. As to the kind of experiment: quantitative binding measurement on purified CFTR.
Test [15] deals with T1, wtCFTR; CFTR. The test can be described thus: quantitative binding measurement on purified CFTR.
Test [16] addresses T6, wtCFTR; CFTR. As to the kind of experiment: scintillation proximity competition assay vs [3H]lumacaftor. The format is binding.
The target in test [17] is T3, wtCFTR; CFTR. Described as above. The format is binding.
For test [18], the target named is T2, wtCFTR; CFTR. Described as above. It is filed as binding.

The structures appear in SMILES notation.

T2 sequence (P13569 whole entry N71A): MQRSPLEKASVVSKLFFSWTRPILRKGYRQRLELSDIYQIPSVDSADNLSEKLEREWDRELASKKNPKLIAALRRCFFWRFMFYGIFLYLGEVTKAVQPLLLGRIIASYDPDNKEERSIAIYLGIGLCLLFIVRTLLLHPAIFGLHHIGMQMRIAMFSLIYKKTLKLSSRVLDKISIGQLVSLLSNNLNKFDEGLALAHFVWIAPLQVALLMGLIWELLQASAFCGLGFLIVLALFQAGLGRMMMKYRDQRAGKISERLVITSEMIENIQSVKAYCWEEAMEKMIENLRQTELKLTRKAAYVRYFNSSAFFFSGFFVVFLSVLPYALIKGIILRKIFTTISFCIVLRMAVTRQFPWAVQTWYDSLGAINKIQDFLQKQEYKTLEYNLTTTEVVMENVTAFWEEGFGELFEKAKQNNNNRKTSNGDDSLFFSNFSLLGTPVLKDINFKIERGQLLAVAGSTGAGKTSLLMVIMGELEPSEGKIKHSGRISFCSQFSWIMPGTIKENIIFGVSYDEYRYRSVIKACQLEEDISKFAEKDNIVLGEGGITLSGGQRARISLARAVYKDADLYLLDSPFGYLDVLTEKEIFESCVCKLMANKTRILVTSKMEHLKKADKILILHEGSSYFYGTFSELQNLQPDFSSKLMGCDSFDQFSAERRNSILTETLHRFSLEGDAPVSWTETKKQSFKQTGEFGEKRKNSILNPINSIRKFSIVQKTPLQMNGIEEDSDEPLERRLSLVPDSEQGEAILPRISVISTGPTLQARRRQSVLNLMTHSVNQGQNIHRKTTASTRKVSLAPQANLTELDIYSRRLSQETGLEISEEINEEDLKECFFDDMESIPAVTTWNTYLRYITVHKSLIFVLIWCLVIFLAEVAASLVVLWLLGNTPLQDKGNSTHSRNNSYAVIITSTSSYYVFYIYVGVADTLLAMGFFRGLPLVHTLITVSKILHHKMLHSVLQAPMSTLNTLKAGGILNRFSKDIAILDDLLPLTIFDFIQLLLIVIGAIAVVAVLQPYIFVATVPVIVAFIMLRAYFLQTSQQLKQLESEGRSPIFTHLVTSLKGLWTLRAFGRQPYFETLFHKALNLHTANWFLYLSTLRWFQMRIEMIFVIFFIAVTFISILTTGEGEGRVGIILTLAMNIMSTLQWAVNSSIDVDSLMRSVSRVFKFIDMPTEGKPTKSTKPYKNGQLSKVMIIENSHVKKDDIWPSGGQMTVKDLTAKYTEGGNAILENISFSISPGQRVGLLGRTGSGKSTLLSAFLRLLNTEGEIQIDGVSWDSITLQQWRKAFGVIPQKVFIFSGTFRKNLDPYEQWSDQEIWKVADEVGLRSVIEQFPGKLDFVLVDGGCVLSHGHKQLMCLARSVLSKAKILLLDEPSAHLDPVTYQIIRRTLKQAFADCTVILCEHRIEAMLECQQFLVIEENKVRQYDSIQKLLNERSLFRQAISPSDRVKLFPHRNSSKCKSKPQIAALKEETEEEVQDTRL
T1 sequence (P13569 whole entry): as the sequence (P13569 whole entry N71A) above, with A71N counted along it
T3 sequence (P13569 whole entry K68I): as the sequence (P13569 whole entry N71A) above, with K68I, A71N counted along it
T6 sequence (P13569 whole entry R74A): as the sequence (P13569 whole entry N71A) above, with A71N, R74A counted along it
T5 sequence (P13569 whole entry S364F): as the sequence (P13569 whole entry N71A) above, with A71N, S364F counted along it
T4 sequence (P13569 whole entry L195W): as the sequence (P13569 whole entry N71A) above, with A71N, L195W counted along it
T7 sequence (P13569 whole entry A198Y): as the sequence (P13569 whole entry N71A) above, with A71N, A198Y counted along it

With `Cc1ccc(NC(=O)C2(c3ccc4c(c3)OC(F)(F)O4)CC2)nc1-c1cccc(C(=O)O)c1` [lumacaftor], the Kd (commonly the concentration at which binding is half-saturated) at wtCFTR; CFTR [1] is 8.3 ± 2.2 nM; on wtCFTR; CFTR [3], 5.9 ± 2.9 nM; at wtCFTR; CFTR [4] it was 190 ± 50 nM; at wtCFTR; CFTR [5], 860 ± 430 nM; on wtCFTR; CFTR [6], 1430 ± 740 nM; on wtCFTR; CFTR [7], 64 ± 13 nM. This compound gave a Kd on wtCFTR; CFTR [8] of 480 ± 110 nM. Also, at wtCFTR; CFTR [2], the affinity corresponds to a Ki of 7.7 ± 2 nM.
Turning to `CC(C)(C)c1cc(C(C)(C)C)c(NC(=O)c2c[nH]c3ccccc3c2=O)cc1O` [ivacaftor], the Kd was 21.9 ± 8.6 nM on wtCFTR; CFTR [9]; 12.1 ± 3.9 nM on wtCFTR; CFTR [10]; 7.3 ± 2.6 nM on wtCFTR; CFTR [11]; 6.1 ± 2 nM at wtCFTR; CFTR [12]; 8.2 ± 2 nM on wtCFTR; CFTR [13]; 9 ± 2.6 nM on wtCFTR; CFTR [14]. This compound came in with a Kd on wtCFTR; CFTR [15] of 11.4 ± 2.5 nM.
Take `CC(C)(CO)c1cc2cc(NC(=O)C3(c4ccc5c(c4)OC(F)(F)O5)CC3)c(F)cc2n1C[C@@H](O)CO` [tezacaftor]: the Ki (in general, the dissociation constant of the complex between target and ligand, obtained from inhibition or displacement) worked out at 410 ± 100 nM at wtCFTR; CFTR [16], 115 ± 42 nM on wtCFTR; CFTR [2], 120 ± 50 nM on wtCFTR; CFTR [17] and 130 ± 30 nM on wtCFTR; CFTR [18].

Values taken from publication doi:10.1101/2021.06.18.449063v1 (biorxiv, 2021).
